Measured values from paper PMC3857843, “Multiple Transport-Active Binding Sites Are Available for a Single Substrate on Human P-Glycoprotein (ABCB1)” (PLoS ONE, 2013).

Tests used:
F343C/V982C mutant Pgp [1] = biological target: T1, F343C/V982C mutant Pgp (Homo sapiens, UniProt P08183, C1074A/C1125A/C1227A/C137A/C431A/C717A/C956A/F343C/V982C); assay: Transport of fluorescent substrates in BacMam-transduced HeLa cells (flow cytometry); settings: compared to cysless WT Pgp (taken as 100%), calcein-AM 0.5 µM 10 min, Rh123 […], other substrates 0.5 µM 45 min
T1 sequence (P08183 whole entry C137A/F343C/C431A/C717A/C956A/V982C/C1074A/C1125A/C1227A): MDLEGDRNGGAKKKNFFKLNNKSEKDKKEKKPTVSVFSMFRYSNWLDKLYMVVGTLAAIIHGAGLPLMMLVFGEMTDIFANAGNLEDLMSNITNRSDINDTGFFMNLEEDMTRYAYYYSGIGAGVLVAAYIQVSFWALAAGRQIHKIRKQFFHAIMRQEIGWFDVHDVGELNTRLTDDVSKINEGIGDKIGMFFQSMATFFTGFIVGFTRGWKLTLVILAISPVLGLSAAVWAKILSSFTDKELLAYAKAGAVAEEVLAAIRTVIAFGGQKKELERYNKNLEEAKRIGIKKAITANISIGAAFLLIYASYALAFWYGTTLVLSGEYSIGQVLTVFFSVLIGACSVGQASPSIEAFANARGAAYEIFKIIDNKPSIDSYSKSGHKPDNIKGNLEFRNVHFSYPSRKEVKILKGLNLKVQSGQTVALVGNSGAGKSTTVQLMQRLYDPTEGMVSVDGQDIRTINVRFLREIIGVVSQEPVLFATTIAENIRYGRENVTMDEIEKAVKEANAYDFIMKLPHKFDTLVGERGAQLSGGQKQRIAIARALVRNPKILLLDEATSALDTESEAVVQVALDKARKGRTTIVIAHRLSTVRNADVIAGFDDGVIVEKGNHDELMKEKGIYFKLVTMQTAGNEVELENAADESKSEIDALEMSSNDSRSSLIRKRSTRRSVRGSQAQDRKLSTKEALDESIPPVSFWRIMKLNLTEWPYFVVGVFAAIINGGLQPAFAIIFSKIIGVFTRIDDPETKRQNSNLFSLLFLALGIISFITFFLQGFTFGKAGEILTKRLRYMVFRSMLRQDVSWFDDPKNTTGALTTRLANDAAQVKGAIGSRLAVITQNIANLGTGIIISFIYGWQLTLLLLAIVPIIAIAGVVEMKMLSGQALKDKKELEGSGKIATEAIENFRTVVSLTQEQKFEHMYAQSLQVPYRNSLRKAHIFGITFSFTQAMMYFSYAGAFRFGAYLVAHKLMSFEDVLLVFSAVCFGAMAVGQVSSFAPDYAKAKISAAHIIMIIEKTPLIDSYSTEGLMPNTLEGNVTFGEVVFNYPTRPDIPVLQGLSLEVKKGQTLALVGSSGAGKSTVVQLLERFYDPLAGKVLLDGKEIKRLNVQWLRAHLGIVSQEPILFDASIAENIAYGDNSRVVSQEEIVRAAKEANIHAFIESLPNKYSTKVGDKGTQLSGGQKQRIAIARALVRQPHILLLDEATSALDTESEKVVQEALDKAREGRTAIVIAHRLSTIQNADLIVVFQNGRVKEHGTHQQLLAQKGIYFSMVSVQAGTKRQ
Experimental: (§1) The BacMam-Pgp virus (encoding cysless WT and the mutant Pgps) was added to 2.5 million HeLa cells at a titer of 50-60 viral particles per cell in 3 ml of DMEM and incubated at 37°C [30]. After 1 hr DMEM was added to make a total of 20 ml in the flask and these infected cells were further incubated for 3-4 hrs. 10 mM butyric acid was then added and the cells continued to incubate at 37°C. After 24 hrs, the cells were trypsinized, washed, counted and analyzed by flow cytometry for cell surface expression and the function of the wildtype and mutant Pgps.
(§2) The transport function of cysless WT and mutant Pgps was determined using fluorescent compounds with flow cytometry as previously described. […] Cells were washed with cold PBS and resuspended in PBS containing 0.1% BSA before analysis.

Q725C/V982C mutant Pgp [2] = biological target: T2, Q725C/V982C mutant Pgp (Homo sapiens, UniProt P08183, C1074A/C1125A/C1227A/C137A/C431A/C717A/C956A/Q725C/V982C); assay: as above; settings: compared to cysless WT Pgp (taken as 100%), calcein-AM 0.5 µM 10 min, Rh123 […], other substrates 0.5 µM 45 min
T2 sequence (P08183 whole entry C137A/C431A/C717A/Q725C/C956A/V982C/C1074A/C1125A/C1227A): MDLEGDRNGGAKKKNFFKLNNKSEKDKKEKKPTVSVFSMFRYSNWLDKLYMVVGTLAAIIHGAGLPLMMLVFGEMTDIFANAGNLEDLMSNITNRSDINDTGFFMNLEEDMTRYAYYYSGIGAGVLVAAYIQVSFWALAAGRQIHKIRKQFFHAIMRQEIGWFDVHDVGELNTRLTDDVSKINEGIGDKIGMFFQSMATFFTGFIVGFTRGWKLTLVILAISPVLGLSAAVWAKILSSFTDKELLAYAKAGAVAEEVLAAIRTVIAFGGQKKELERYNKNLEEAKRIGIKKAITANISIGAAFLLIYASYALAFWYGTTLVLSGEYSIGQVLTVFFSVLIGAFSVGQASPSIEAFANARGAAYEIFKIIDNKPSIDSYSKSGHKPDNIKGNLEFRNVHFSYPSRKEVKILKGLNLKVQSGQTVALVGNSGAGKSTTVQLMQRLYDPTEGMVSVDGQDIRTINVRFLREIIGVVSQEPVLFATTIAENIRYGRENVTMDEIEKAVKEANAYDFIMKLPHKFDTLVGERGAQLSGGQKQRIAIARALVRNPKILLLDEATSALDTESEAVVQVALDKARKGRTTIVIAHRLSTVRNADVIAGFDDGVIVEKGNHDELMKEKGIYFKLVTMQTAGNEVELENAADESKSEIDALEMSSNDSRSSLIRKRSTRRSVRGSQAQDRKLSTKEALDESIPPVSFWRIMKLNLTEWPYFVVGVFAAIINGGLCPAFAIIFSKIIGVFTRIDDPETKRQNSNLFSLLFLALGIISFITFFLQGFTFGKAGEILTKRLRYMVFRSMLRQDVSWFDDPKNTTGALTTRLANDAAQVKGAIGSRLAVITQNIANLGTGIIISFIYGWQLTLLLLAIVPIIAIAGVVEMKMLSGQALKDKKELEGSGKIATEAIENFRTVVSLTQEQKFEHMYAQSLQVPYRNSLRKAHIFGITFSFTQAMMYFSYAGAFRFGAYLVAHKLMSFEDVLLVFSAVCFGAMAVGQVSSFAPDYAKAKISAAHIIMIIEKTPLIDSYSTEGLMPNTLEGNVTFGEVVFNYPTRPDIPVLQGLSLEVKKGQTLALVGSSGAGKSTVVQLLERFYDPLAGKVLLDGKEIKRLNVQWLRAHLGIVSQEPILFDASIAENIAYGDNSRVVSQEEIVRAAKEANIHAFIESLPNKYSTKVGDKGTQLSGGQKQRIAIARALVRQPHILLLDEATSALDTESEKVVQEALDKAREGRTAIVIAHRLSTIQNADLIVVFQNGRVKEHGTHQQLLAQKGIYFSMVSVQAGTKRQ
Experimental: as §1, §2

Y307C mutant Pgp [3] = biological target: T3, Y307C mutant Pgp (Homo sapiens, UniProt P08183, C1074A/C1125A/C1227A/C137A/C431A/C717A/C956A/Y307C); assay: as above; settings: compared to cysless WT Pgp (taken as 100%), calcein-AM 0.5 µM 10 min, Rh123 […], other substrates 0.5 µM 45 min
Experimental: as §1, §2

Q725C mutant Pgp [4] = biological target: T4, Q725C mutant Pgp (Homo sapiens, UniProt P08183, C1074A/C1125A/C1227A/C137A/C431A/C717A/C956A/Q725C); assay: as above; settings: compared to cysless WT Pgp (taken as 100%), calcein-AM 0.5 µM 10 min, Rh123 […], other substrates 0.5 µM 45 min
Experimental: as §1, §2

V982C mutant Pgp [5] = biological target: T5, V982C mutant Pgp (Homo sapiens, UniProt P08183, C1074A/C1125A/C1227A/C137A/C431A/C717A/C956A/V982C); assay: as above; settings: compared to cysless WT Pgp (taken as 100%), calcein-AM 0.5 µM 10 min, Rh123 […], other substrates 0.5 µM 45 min
T5 sequence (P08183 whole entry C137A/C431A/C717A/C956A/V982C/C1074A/C1125A/C1227A): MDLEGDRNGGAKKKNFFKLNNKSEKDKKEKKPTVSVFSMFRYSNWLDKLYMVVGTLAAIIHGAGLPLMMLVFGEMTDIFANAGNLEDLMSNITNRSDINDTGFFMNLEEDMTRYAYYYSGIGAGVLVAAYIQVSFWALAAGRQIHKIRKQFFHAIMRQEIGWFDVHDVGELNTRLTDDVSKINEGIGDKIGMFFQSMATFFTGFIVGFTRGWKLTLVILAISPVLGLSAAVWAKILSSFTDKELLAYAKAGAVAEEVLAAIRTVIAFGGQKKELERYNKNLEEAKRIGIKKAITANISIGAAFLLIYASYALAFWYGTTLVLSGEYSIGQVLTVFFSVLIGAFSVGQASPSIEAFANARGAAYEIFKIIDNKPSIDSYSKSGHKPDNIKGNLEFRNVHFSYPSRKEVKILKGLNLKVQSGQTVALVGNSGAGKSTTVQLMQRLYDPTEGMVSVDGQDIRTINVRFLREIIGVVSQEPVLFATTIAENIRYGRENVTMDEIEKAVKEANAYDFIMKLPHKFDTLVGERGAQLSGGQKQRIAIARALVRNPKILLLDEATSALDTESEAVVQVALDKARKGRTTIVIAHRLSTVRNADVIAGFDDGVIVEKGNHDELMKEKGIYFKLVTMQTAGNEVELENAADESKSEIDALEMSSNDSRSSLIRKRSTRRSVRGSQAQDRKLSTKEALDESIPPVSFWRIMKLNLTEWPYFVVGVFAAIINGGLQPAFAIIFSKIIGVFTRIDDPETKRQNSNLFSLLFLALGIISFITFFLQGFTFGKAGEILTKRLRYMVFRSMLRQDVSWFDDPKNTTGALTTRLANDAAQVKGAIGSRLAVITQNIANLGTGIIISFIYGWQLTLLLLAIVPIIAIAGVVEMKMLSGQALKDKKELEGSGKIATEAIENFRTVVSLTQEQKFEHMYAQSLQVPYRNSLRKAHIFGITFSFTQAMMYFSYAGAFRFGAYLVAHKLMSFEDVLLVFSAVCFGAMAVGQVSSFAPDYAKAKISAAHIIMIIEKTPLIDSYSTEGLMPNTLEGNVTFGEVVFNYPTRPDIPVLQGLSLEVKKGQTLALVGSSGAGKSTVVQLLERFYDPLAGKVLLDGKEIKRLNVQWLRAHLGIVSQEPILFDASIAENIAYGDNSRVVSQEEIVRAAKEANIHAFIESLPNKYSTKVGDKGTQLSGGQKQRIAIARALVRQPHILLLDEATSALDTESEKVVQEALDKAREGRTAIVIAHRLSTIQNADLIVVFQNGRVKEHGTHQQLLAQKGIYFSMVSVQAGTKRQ
Experimental: as §1, §2

F728C mutant Pgp [6] = biological target: T6, F728C mutant Pgp (Homo sapiens, UniProt P08183, C1074A/C1125A/C1227A/C137A/C431A/C717A/C956A/F728C); assay: as above; settings: compared to cysless WT Pgp (taken as 100%), calcein-AM 0.5 µM 10 min, Rh123 […], other substrates 0.5 µM 45 min
Experimental: as §1, §2

F343C mutant Pgp [7] = biological target: T7, F343C mutant Pgp (Homo sapiens, UniProt P08183, C1074A/C1125A/C1227A/C137A/C431A/C717A/C956A/F343C); assay: as above; settings: compared to cysless WT Pgp (taken as 100%), calcein-AM 0.5 µM 10 min, Rh123 […], other substrates 0.5 µM 45 min
T7 sequence (P08183 whole entry C137A/F343C/C431A/C717A/C956A/C1074A/C1125A/C1227A): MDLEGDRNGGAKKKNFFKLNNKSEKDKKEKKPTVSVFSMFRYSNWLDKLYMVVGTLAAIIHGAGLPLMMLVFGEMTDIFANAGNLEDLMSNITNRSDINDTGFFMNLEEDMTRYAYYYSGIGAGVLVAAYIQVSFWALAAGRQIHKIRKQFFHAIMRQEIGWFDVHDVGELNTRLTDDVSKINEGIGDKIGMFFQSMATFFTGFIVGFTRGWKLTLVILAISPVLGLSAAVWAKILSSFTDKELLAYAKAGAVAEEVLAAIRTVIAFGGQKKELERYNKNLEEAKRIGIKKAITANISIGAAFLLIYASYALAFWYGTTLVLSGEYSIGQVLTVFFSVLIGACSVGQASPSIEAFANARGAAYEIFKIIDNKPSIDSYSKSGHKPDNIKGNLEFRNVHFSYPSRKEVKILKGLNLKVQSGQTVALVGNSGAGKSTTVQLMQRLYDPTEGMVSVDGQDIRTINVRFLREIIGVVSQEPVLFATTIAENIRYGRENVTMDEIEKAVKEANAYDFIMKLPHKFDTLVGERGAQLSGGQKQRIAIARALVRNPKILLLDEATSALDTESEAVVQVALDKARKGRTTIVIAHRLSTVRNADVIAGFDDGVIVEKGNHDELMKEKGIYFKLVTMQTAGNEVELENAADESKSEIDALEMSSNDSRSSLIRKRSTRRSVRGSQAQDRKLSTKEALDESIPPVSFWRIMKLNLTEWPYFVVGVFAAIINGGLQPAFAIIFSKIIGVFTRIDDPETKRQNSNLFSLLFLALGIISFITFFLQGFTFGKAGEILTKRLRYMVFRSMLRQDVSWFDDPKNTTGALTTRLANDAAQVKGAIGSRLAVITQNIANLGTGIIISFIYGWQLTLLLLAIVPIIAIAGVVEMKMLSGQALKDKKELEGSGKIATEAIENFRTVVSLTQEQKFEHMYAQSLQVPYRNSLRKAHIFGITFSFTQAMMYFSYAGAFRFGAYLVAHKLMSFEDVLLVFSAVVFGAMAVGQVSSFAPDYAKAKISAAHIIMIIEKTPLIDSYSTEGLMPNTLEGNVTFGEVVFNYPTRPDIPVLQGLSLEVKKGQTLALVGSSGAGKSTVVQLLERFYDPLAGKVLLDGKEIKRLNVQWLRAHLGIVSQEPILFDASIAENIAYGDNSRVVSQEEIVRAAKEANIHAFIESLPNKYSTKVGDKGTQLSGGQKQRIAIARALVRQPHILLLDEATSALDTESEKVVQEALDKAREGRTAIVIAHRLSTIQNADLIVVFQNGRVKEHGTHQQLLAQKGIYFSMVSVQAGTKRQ
Experimental: as §1, §2

F978C mutant Pgp = F978C mutant Pgp (Homo sapiens, UniProt P08183, C1074A/C1125A/C1227A/C137A/C431A/C717A/C956A/F978C); assay: as above; settings: compared to cysless WT Pgp (taken as 100%), calcein-AM 0.5 µM 10 min, Rh123 […], other substrates 0.5 µM 45 min
Experimental: as §1, §2

Y307C/V982C mutant Pgp = Y307C/V982C mutant Pgp (Homo sapiens, UniProt P08183, C1074A/C1125A/C1227A/C137A/C431A/C717A/C956A/V982C/Y307C); assay: Vanadate-sensitive ATP hydrolysis of Pgp in crude membranes; settings: Verapamil 50 µM, QZ59-SSS 1 µM, Valinomycin 10 µM, FSBA 1 mM
Experimental: (§3) Vanadate-sensitive Pgp-mediated ATP hydrolysis was measured as described in Materials and Methods. […] At least two independent experiments were carried out for each mutant with indicated compounds. Additional information including standard deviations, fold-stimulation or % inhibition, and number of experiments is given in the section (Tables S2 and S3).
(§4) High-Five insect cells (Invitrogen, Carlsbad, CA) were infected with recombinant baculovirus carrying the human MDR1 cDNA cysless WT and various mutant Pgps, with a His6-tag at the C-terminus as described previously. Crude membranes were prepared as described previously
(§5) Crude membranes (10-25 µg protein/100 µ L) from High Five insect cells expressing cysless WT or mutant Pgp were incubated in the presence and absence of sodium orthovanadate (0.3 mM), in a buffer containing 50 mM MES-Tris pH 6.8, 50 mM KCl, 5 mM NaN3, 1 mM EGTA, 1 mM ouabain, 2 mM DTT, and 10 mM MgCl2. […] The reaction was initiated by addition of 5 mM ATP and continued for 20 min at 37°C. […] The reaction was stopped by addition of 100 µ L of 5% SDS and the amount of inorganic phosphate generated was quantified with a colorimetric reaction, as previously described.

F343C/V982C mutant Pgp [8] = biological target: T1, F343C/V982C mutant Pgp; assay: as above; settings: Verapamil 50 µM, QZ59-SSS 1 µM, Valinomycin 10 µM, FSBA 1 mM
Experimental: as §3, §4, §5

Q725C/V982C mutant Pgp [9] = biological target: T2, Q725C/V982C mutant Pgp; assay: as above; settings: Verapamil 50 µM, QZ59-SSS 1 µM, Valinomycin 10 µM, FSBA 1 mM
Experimental: as §3, §4, §5

cysless WT Pgp [10] = biological target: T8, cysless WT Pgp (Homo sapiens, UniProt P08183, C1074A/C1125A/C1227A/C137A/C431A/C717A/C956A); assay: as above; settings: Verapamil 50 µM, QZ59-SSS 1 µM, Valinomycin 10 µM, FSBA 1 mM
Experimental: as §3, §4, §5

Y307C mutant Pgp [11] = biological target: T3, Y307C mutant Pgp; assay: as above; settings: Verapamil 50 µM, QZ59-SSS 1 µM, Valinomycin 10 µM, FSBA 1 mM
Experimental: as §3, §4, §5

Q725C mutant Pgp [12] = biological target: T4, Q725C mutant Pgp; assay: as above; settings: Verapamil 50 µM, QZ59-SSS 1 µM, Valinomycin 10 µM, FSBA 1 mM
Experimental: as §3, §4, §5

[13] = biological target: T9, Y307C/Q725C/V982C mutant Pgp (Homo sapiens, UniProt P08183, C1074A/C1125A/C1227A/C137A/C431A/C717A/C956A/Q725C/V982C/Y307C); assay: as above; settings: Verapamil 50 µM, QZ59-SSS 1 µM, Valinomycin 10 µM, FSBA 1 mM
Experimental: as §3, §4, §5

V982C mutant Pgp [14] = biological target: T5, V982C mutant Pgp; assay: as above; settings: Verapamil 50 µM, QZ59-SSS 1 µM, Valinomycin 10 µM, FSBA 1 mM
Experimental: as §3, §4, §5

F728C mutant Pgp [15] = biological target: T6, F728C mutant Pgp; assay: as above; settings: Verapamil 50 µM, QZ59-SSS 1 µM, Valinomycin 10 µM, FSBA 1 mM
Experimental: as §3, §4, §5

F343C mutant Pgp [16] = biological target: T7, F343C mutant Pgp; assay: as above; settings: Verapamil 50 µM, QZ59-SSS 1 µM, FSBA 1 mM
Experimental: as §3, §4, §5

F728C/V982C mutant Pgp = F728C/V982C mutant Pgp (Homo sapiens, UniProt P08183, C1074A/C1125A/C1227A/C137A/C431A/C717A/C956A/F728C/V982C); assay: as above; settings: Verapamil 50 µM, QZ59-SSS 1 µM, Valinomycin 10 µM, FSBA 1 mM
Experimental: as §3, §4, §5

cysless WT Pgp [17] = biological target: T8, cysless WT Pgp; assay: Inhibition of IAAP photo-labeling of Pgp in crude membranes
Experimental: (§6) Then, samples were photocrosslinked with IAAP at 4°C as described in the Materials and Methods section. Mean values from at least three independent experiments are plotted and error bars depict SD.
as §4
(§7) The crude membranes of High-Five insect cells containing 60-80 µg protein per 100 µL in 50 mM MES-Tris buffer (pH 6.8), were incubated for 10 minutes at 37°C in the absence (control) and presence of compound(s) at indicated concentration.

[18] = biological target: T9, Y307C/Q725C/V982C mutant Pgp; assay: as above
Experimental: as §6, §4, §7

all mutant Pgps = assay: Vanadate-sensitive ATP hydrolysis of Pgp in crude membranes; assay type: biochemical, human
Experimental: Crude membranes were prepared as described previously

COc1cccc2c1C(=O)c1c(O)c3c(c(O)c1C2=O)C[C@@](O)(C(C)=O)C[C@@H]3O[C@H]1C[C@H](N)[C@H](O)[C@H](C)O1 [Dauno, daunorubicin]
Transport function (F343C/V982C mutant Pgp [1]): 90-100%
Transport function (Q725C/V982C mutant Pgp [2]): 90-100%
Transport function (Y307C mutant Pgp [3]): 90-100%
Transport function (Q725C mutant Pgp [4]): 90-100%
Transport function (V982C mutant Pgp [5]): 90-100%
Transport function (F728C mutant Pgp [6]): 90-100%
Transport function (F343C mutant Pgp [7]): 90-100%
Transport function (F978C mutant Pgp): 90-100%

Nc1ncnc2c1ncn2[C@@H]1O[C@H](COC(=O)c2ccc(S(=O)(=O)F)cc2)[C@@H](O)[C@H]1O [FSBA, 5′-fluorosulfonylbenzoyl 5′-adenosine]
ATP hydrolysis, Average (Y307C/V982C mutant Pgp): 20 nmoles Pi/min/mg protein
ATP hydrolysis, Fold-stimulation (Y307C/V982C mutant Pgp; relative to basal): 2.1
ATP hydrolysis, Average (F343C/V982C mutant Pgp [8]): 50 nmoles Pi/min/mg protein
ATP hydrolysis, Fold-stimulation (F343C/V982C mutant Pgp [8]; relative to basal): 2.7
ATP hydrolysis, Average (Q725C/V982C mutant Pgp [9]): 12 nmoles Pi/min/mg protein
ATP hydrolysis, Fold-stimulation (Q725C/V982C mutant Pgp [9]; relative to basal): 2.3
ATP hydrolysis, Average (cysless WT Pgp [10]): 52 nmoles Pi/min/mg protein
ATP hydrolysis, Fold-stimulation (cysless WT Pgp [10]; relative to basal): 2.4
ATP hydrolysis, Average (Y307C mutant Pgp [11]): 14 nmoles Pi/min/mg protein
ATP hydrolysis, Fold-stimulation (Y307C mutant Pgp [11]; relative to basal): 1.9
ATP hydrolysis, Average (Q725C mutant Pgp [12]): 10 nmoles Pi/min/mg protein
ATP hydrolysis, Fold-stimulation (Q725C mutant Pgp [12]; relative to basal): 2.0
ATP hydrolysis, Average [13]: 6 nmoles Pi/min/mg protein
ATP hydrolysis, Average (V982C mutant Pgp [14]): 28 nmoles Pi/min/mg protein
ATP hydrolysis, Fold-stimulation (V982C mutant Pgp [14]; relative to basal): 2.4
ATP hydrolysis, Average (F728C mutant Pgp [15]): 11 nmoles Pi/min/mg protein
ATP hydrolysis, Fold-stimulation (F728C mutant Pgp [15]; relative to basal): 1.8
ATP hydrolysis, Average (F343C mutant Pgp [16]): 39 nmoles Pi/min/mg protein
ATP hydrolysis, Fold-stimulation (F343C mutant Pgp [16]; relative to basal): 2.1
ATP hydrolysis, Average (F728C/V982C mutant Pgp): 5 nmoles Pi/min/mg protein
ATP hydrolysis, Fold-stimulation (F728C/V982C mutant Pgp; relative to basal): 1.1
Max Inhibition (%) of IAAP-labeling (cysless WT Pgp [17]; Cysless WT, High-Five crude membranes): 85%
IC50 (cysless WT Pgp [17]; read-out: IC50 (µM), inhibition of IAAP-labeling, Cysless WT, High-Five crude membranes): 390 µM
Inhibition of IAAP photo-labeling ([18]; Y307C/Q725C/V982C, at higher concentrations): < 30%

CC(C)[C@@H]1NC(=O)c2csc(n2)[C@H](C(C)C)NC(=O)c2csc(n2)[C@H](C(C)C)NC(=O)c2csc1n2 [QZ59-SSS]
Modulation of ATP hydrolysis (all mutant Pgps; all mutant Pgps, inhibition measured in presence of verapamil 5 µM): stimulates ATP hydrolysis of the mutant Pgps with no exceptions
IC50 (cysless WT Pgp [17]): 6 µM
Max Inhibition (%) of IAAP-labeling (cysless WT Pgp [17]): 72%
Inhibition of IAAP photo-labeling [18]: < 30%

COC(=O)c1ccccc1-c1c2ccc(=N)cc-2oc2cc(N)ccc12 [Rh123, rhodamine123]
Transport function (F343C/V982C mutant Pgp [1]): 90-100%
Transport function (Q725C/V982C mutant Pgp [2]): 90-100%
Transport function (Y307C mutant Pgp [3]): 90-100%
Transport function (Q725C mutant Pgp [4]): 90-100%
Transport function (V982C mutant Pgp [5]): 90-100%
Transport function (F728C mutant Pgp [6]): 90-100%
Transport function (F343C mutant Pgp [7]): 90-100%
Transport function (F978C mutant Pgp): 90-100%

COc1ccc(CCN(C)CCCC(C#N)(c2ccc(OC)c(OC)c2)C(C)C)cc1OC (stereo not drawn) [Verapamil, verapamil]
Stimulation of ATP hydrolysis (all mutant Pgps; all the mutants, Verapamil 50 µM): 2-4 fold
